Consider one substance from paper PMC6152234, “Specialized Metabolites of the Lichen Vulpicida pinastri Act as Photoprotective Agents” (Molecules : A Journal of Synthetic Chemistry and Natural …, 2017).

Series [1] is described as follows: Stability of photoprotection indexes after UVA or UVB irradiation. It counts as physicochemical. The protocol: One hundred eighty microliters of solution in 96-well plates were irradiated by UVA (2 J/cm^2) or UVB ([…]). The absorbances were then recorded and photoprotective indexes were calculated as described above. The stability was evaluated by comparison between indexes described previously (Section 3.5.1) and obtained before and after irradiation. Two independently prepared solutions were studied and OMC was used as a positive control.

The nature of series [2]: In vitro screening method for sun protection indexes (SPF, PF-UVA, λc, ISP, SUI) from UV absorbance 290–400 nm. The format is physicochemical. The settings on record: before irradiation. The protocol: Photoprotective effectiveness is evaluated through photoprotective indexes such as SPF, PF-UVA, and critical wavelength (λc) (an indicator of the filter capacity to protect in the UVA range), as well as Spectral Uniformity Index (SUI) and Ideal Spectral Profile (ISP), two indexes recently defined by Diffey to focus on protection across the entire ultraviolet spectrum. They calculate the goodness of fit of the spectral profile to the ideal flat profile. SPF and PF-UVA measure the filter efficacy against UVB or UVA. SPF measurement is currently determined in vivo through determination of the erythemal reaction on human volunteers. For economical and ethical reasons, many alternative in vitro methods have been developed to measure SPF and also PF-UVA, λc or SUI and ISP. Unfortunately, despite concerted efforts around the globe between different commissions, none of them guarantees a good correlation with in vivo measurements. Moreover, all these in vitro methods require an amount of active raw material generally ≥100 mg and prevent the evaluation of compounds in minute amounts. The photoprotective indexes have been then determined thanks to a new method (see SM) especially developed to cope with the low availability of the compounds. Twelve commercial organic UV-filters, the photoprotective indexes of which were published (Table S3 in SM), encompassing a 1–24 SPF range were used for the development. It can be noted that the SPF values of benzophenone-3 (oxybenzone), PEG-25 PABA, homosalate, polysilicone 15 and 4-Methylbenzylidene Camphor are under 6, the value commonly accepted as the lower limit for commercial sunscreen. However, the efficient value of commercialized emulsion can be explained by the formulation of several organic and mineral filters. The similarity of the results (r^2 = 0.98 for published SPF vs. herein SPF, see Figure S1 in SM) supported the new method validity. Routinely, ethylhexyl methoxycinnamate (OMC) was used as positive control. Based on the SPF, λc, PF-UVA, SUI and ISP values obtained with marketed organic filters and on their UV range protection (Table S3 in SM), a decision tree was built to categorize the filters (Figure 3). Considering the herein SPF values of the filters cited above (around 2), the first condition to select a candidate is SPF > 2. Restricted UVA or UVB filters can be discriminated through the λc value (>370 nm) and PF-UVA (>2) for UVA and SUI (>1.2) and ISP (<90) for UVB. A large spectral protection (UVA + UVB) could be evaluated by combining the four criteria.
A new in vitro screening method based on spectrophotometric data was used to evaluate sun protection indexes such as SPF, PF-UVA, the critical wavelength λc, ISP and SUI. Its development was first conducted in a cuvette using twelve commercial organic filters encompassing a large range of SPF values (1 < SPF < 25) and then transposed in a 96-wells plate. Following the International recommendations, maximal concentrations never overtook 10% whatever the commercial filters or the lichens extracts or compounds considered. This new method faces some product availability limitation, which is a common shortcoming for natural products or metabolites (see all development in SM).
The scheme of solution preparation to record the experimental values is depicted in Figure 9. The sample (S4) was prepared at 0.02 mg/mL from stock solutions of filter candidate (S2) and of emulsion (S1) (See emulsion preparation in SM) taking into account the maximal concentration. The experimental absorbances Aλ were recorded in the 290–400 nm range versus a blank solution (S3) in a cuvette with a double beam spectrophotometer or in a 96-wells plate filled with 180 µL of solution by well. […] The diagram is described for final volumes of 50 mL, 100 µL, 25 mL and 25 mL for S1, S2, S3 and S4 solutions, respectively. Smaller volumes can easily be prepared. Solutions S2 and S4 were prepared in duplicate. […]

The nature of series [3]: NBT assay (superoxide anion scavenging, non-enzymatic NADH/PMS). It counts as biochemical. The protocol: Measurements of superoxide anion scavenging activity in 96-well microplates was based on the non-enzymatic method previously described with some modifications. The reaction mixture in the sample wells consisted of NADH (78 µM), nitro-blue tetrazolium (NBT) (50 µM), phenazine methosulfate (PMS) (10 µM), and lichen compounds (10, 20, 40, 80 µg/mL). The reagents were dissolved in 16 mM tris-hydrochloride buffer, at pH = 8 except for all the lichen compounds/extract which were dissolved in DMSO. After 5 min of incubation at room temperature, the spectrophotometric measurement was performed at 560 nm against blanks (without PMS nor sample).
(§1) For both assays, each concentration and all tests were done in triplicate and the results averaged. Ascorbic acid was used as a positive control. The percentage inhibition at steady state for each dilution was used to calculate the IC50 values. This gave the amount of antioxidant required (measured as the concentration of the stock solution added to the reaction mixture) to either scavenge 50% of O2^− or 50% of DPPH radicals: the lower the values, the higher the scavenging activity towards O2^−.

Series [4] in a line: NBT antioxidant assay of compounds in combination (isobologram, combination index). The format is biochemical. The protocol: For each drug ratio (Tables S5 and S6 in SM), the antioxidant inhibition was evaluated as previously described (2.6.1).
The antagonistic, synergistic or additive effect of the combination depends on the combination index value (CI) (Equation (1)). […] (IC50)X is the value of the IC50 of compound X alone.
For both assays, each concentration and all tests were done in triplicate and the results averaged.

Series [5] can be described thus: DPPH assay (reducing activity). The format is biochemical. The protocol:
Reducing activity of compounds 1–3 and crude extract on the 1,1′-diphenyl-2-picrylhydrazyl free radical (DPPH) and scavenging activity on superoxide anion were measured as previously described. Briefly, the scavenging activity of the lichen compounds on DPPH was measured using the Matsukawa method with some modifications. A reaction mixture containing 100 µL of DPPH (0.5 mM) in methanol and 10 µL of the lichen compound solutions in DMSO to give final concentrations of 19, 56, 167 and 500 µg/mL per well, was distributed in each microplate well. To allow results comparison and due to the presence of extract, concentrations are expressed in µg/mL. The absorbances were recorded at 540 nm after 30 min.
as §1
Background: Loss of DPPH colour is used to gauge radical scavenging.

In series [6] the test system is HaCaT cells. The experiment in a line: Cytotoxic and photocytotoxic activities before and after UVA irradiation. The format is cell-based, human. As to the method:
Briefly, 100 µL per well of a cell suspension of HaCaT cells (ATCC) at 120,000 cells/mL were maintained in a RPMI culture medium with 5% of calf serum at 37 °C under 5% CO2 for 24 h for formation of monolayers. At t = 24 h, two 96-well plates per test chemical were preincubated for 1 h with seven different concentrations of the tested compounds and extract (ranging from 1 µg/mL to 200 µg/mL). Chlorpromazine was used as the positive control. To allow results comparison and due to the presence of extract, concentrations are expressed in µg/mL.
For both assays, each concentration and all tests were done in triplicate and the results averaged. The percentage inhibition at steady state for each dilution was used to calculate the IC50 values.

On the set-up of series [7]: method as in earlier work. The settings on record: ref 37 (Rancan); cited from earlier work.

As to usnic acid, in series [1] (UVA 2 J/cm^2), the “variation in the SPF values after UVA irradiation” value is “+17%”. In addition, in series [1] (UVA and UVB), the photostability result was “photostable in the UVA and UVB ranges”. The “ISP (Ideal Spectral Profile)” value in series [2] stood at 53%. Also, in series [2], the PF-UVA was 1.8. Moreover, in series [2], the “critical wavelength (λc)” value was 364 nm. Besides, in series [2] (new in vitro method), the SPF was found to be 3.9. Moreover, the “NBT Assay IC50 ± SD” value in series [3] stood at 24.0 ± 9 mg/L. For the same substance, the “Superoxide anion scavenging activity (% inhibition)” value worked out at 32.0% in series [4] (Table S6, usnic acid alone 6.0 µg/mL); 40.0% in series [4] (Table S6, usnic acid alone 12.0 µg/mL); 46.0% in series [4] (Table S6, usnic acid alone 18.0 µg/mL); 50.0% in series [4] (Table S6, usnic acid alone 24.0 µg/mL); 32.0% in series [4] (Table S7, usnic acid alone 6.0 µg/mL); 40.0% in series [4] (Table S7, usnic acid alone 12.0 µg/mL). In addition, the “Superoxide anion scavenging activity (% inhibition)” value in series [4] (Table S7, usnic acid alone 18.0 µg/mL) came to 46.0%; in series [4] (Table S7, usnic acid alone 24.0 µg/mL), 50.0%. The “DPPH Assay IC50 ± SD” value in series [5] was more than 500.0 mg/L. Also, in series [6] (HaCaT cells, with UVA irradiation), the “IC50 ± SD With Irradiation” value came to 47.0 ± 10.0 mg/L. In addition, the “IC50 ± SD Without Irradiation” value in series [6] (HaCaT cells, without irradiation) is 33.0 ± 2.0 mg/L. Further, in series [6] (from PIF, human keratinocyte cell line, UVA), the phototoxic potential result was “no phototoxic potential”. In addition, in series [7], the “in vivo SPF” value was 4.1.
